Laboratory results: PubChem BioAssay AID314 (DTP/NCI, 2004)
Where “and” joins values, the source holds several entries; their conditions need not be identical. Equal entries are not always repeated. Inconclusive results and toxic doses are left out. How the source made its calls: active means survival T/C of 150% or more; inactive means T/C below 125% in these data.

Test system: DBA/2 mice, P1534 leukemia ip, survival T/C
Assay: NCI In Vivo Anticancer Drug Screen. Data for tumor model P1534 Leukemia (intraperitoneal) in DBA/2 mice
Details: endpoint: mean survival time, higher = longer survival
Description: The antitumor activity of compounds was measured in mice bearing transplantable tumors. Survival or tumor size were measured and the results are expressed as the measurement made in the treated group (T) divided by the measurement made in the vehicle treated control group (C). The tumor model used in this assay is P1534 Leukemia (intraperitoneal) in DBA/2 mice

[1] = dose: 8.0 mg/kg/injection, schedule: Q01DX010 (ip), vehicle: saline
[2] = dose: 16.0 mg/kg/injection, schedule: Q01DX010 (ip), vehicle: saline
[3] = dose: 32.0 mg/kg/injection, schedule: Q01DX010 (ip), vehicle: saline
[4] = dose: 125.0 mg/kg/injection, schedule: Q01DX010 (ip), vehicle: saline
[5] = dose: 250.0 mg/kg/injection, schedule: Q01DX010 (ip), vehicle: saline
[6] = dose: 31.3 mg/kg/injection, schedule: Q01DX010 (ip), vehicle: saline
[7] = dose: 62.5 mg/kg/injection, schedule: Q01DX010 (ip), vehicle: saline

Measured: T/C

CCNNC(=O)[C@@H]1[C@H](c2cc(OC)c(OC)c(OC)c2)c2cc3c(cc2[C@H](O)[C@H]1CO)OCO3
inactive: dose: 2.0 mg/kg/injection, schedule: Q01DX010 (ip), vehicle: saline 100 % of control | dose: 4.0 mg/kg/injection, schedule: Q01DX010 (ip), vehicle: saline 100 % of control | [1] 96 % of control and 100 % of control and 111 % of control | [2] 100 % of control (2×) and 103 % of control | [3] 103 % of control

CS(=O)(=O)OCCCl
inactive: dose: 18.8 mg/kg/injection, schedule: Q01DX010 (ip), vehicle: saline 89 % of control | dose: 37.5 mg/kg/injection, schedule: Q01DX010 (ip), vehicle: saline 100 % of control | dose: 75.0 mg/kg/injection, schedule: Q01DX010 (ip), vehicle: saline 92 % of control

O=CCC(O)C(O)C(O)CO (stereo not given)
inactive: [4] 103 % of control | [5] 92 % of control and 107 % of control | dose: 500.0 mg/kg/injection, schedule: Q01DX010 (ip), vehicle: saline 107 % of control and 115 % of control

C1CCNC1
inactive: dose: 0.19 mg/kg/injection, schedule: Q01DX010 (ip), vehicle: saline 93 % of control | dose: 0.39 mg/kg/injection, schedule: Q01DX010 (ip), vehicle: saline 86 % of control | dose: 1.56 mg/kg/injection, schedule: Q01DX010 (ip), vehicle: saline 96 % of control

COc1cc2c(c(OC)c1OC)-c1ccc(OC)c(=O)cc1[C@@H](NC(C)=O)CC2
inactive: dose: 0.01 mg/kg/injection, schedule: Q01DX010 (ip), vehicle: saline 107 % of control | dose: 0.02 mg/kg/injection, schedule: Q01DX010 (ip), vehicle: saline 110 % of control | dose: 0.04 mg/kg/injection, schedule: Q01DX010 (ip), vehicle: saline 114 % of control | dose: 0.08 mg/kg/injection, schedule: Q01DX010 (ip), vehicle: saline 121 % of control

Nc1nc2n[nH]nc2c(=O)[nH]1
inactive: dose: 3.0 mg/kg/injection, schedule: Q01DX010 (ip), vehicle: alkali diluted with saline 100 % of control and 115 % of control | dose: 6.0 mg/kg/injection, schedule: Q01DX010 (ip), vehicle: alkali diluted with saline 100 % of control and 111 % of control | dose: 12.0 mg/kg/injection, schedule: Q01DX010 (ip), vehicle: alkali diluted with saline 107 % of control and 113 % of control

CN(C)Cc1c[nH]c2ccccc12
inactive: dose: 15.6 mg/kg/injection, schedule: Q01DX010 (ip), vehicle: saline 100 % of control | [6] 100 % of control

CSc1ncnc2nc[nH]c12
inactive: dose: 12.5 mg/kg/injection, schedule: Q01DX010 (ip), vehicle: saline 92 % of control | dose: 100.0 mg/kg/injection, schedule: Q01DX010 (ip), vehicle: saline 100 % of control

O=C1CCC(N2C(=O)c3ccccc3C2=O)C(=O)N1 (stereo not given)
inactive: [6] 100 % of control | [7] 96 % of control | [4] 96 % of control | [5] 96 % of control

CN[C@H]1CCc2cc(OC)c(OC)c(OC)c2-c2ccc(OC)c(=O)cc21
inactive: dose: 0.63 mg/kg/injection, schedule: Q01DX010 (ip), vehicle: other 111 % of control and 115 % of control | dose: 1.25 mg/kg/injection, schedule: Q01DX010 (ip), vehicle: other 100 % of control and 103 % of control

O=C(Nc1ccc(C2=NCCN2)cc1)c1cc(Cl)cc(C(=O)Nc2ccc(C3=NCCN3)cc2)c1
inactive: dose: 140.0 mg/kg/injection, schedule: Q01DX010 (ip), vehicle: saline 96 % of control and 100 % of control | dose: 210.0 mg/kg/injection, schedule: Q01DX010 (ip), vehicle: saline 92 % of control and 107 % of control | dose: 315.0 mg/kg/injection, schedule: Q01DX010 (ip), vehicle: saline 96 % of control and 115 % of control | dose: 473.0 mg/kg/injection, schedule: Q01DX010 (ip), vehicle: saline 103 % of control and 111 % of control

CCOC(C)C(/C=N/NC(N)=S)=NNC(N)=S (stereo not given)
inactive: dose: 15.0 mg/kg/injection, schedule: Q01DX010 (ip), vehicle: saline 91 % of control | dose: 30.0 mg/kg/injection, schedule: Q01DX010 (ip), vehicle: saline 100 % of control | dose: 60.0 mg/kg/injection, schedule: Q01DX010 (ip), vehicle: saline 100 % of control | dose: 120.0 mg/kg/injection, schedule: Q01DX010 (ip), vehicle: saline 95 % of control

CC(=O)[C@H]1CC[C@H]2[C@@H]3C[C@H](C)C4=CC(=O)CC[C@]4(C)[C@H]3C(=O)C[C@]12C
inactive: dose: 6.25 mg/kg/injection, schedule: Q01DX010 (sc), vehicle: steriod suspending solution 100 % of control | dose: 12.5 mg/kg/injection, schedule: Q01DX010 (sc), vehicle: steriod suspending solution 107 % of control | dose: 25.0 mg/kg/injection, schedule: Q01DX010 (sc), vehicle: steriod suspending solution 103 % of control | dose: 50.0 mg/kg/injection, schedule: Q01DX010 (sc), vehicle: steriod suspending solution 107 % of control

N=C(N)SCc1c2ccccc2c(CSC(=N)N)c2ccccc12
inactive: dose: 5.0 mg/kg/injection, schedule: Q01DX010 (ip), vehicle: saline 100 % of control | dose: 10.0 mg/kg/injection, schedule: Q01DX010 (ip), vehicle: saline 96 % of control

Nc1ncccc1C(=O)O
inactive: [7] 89 % of control

Nc1nc(SCc2ccccc2)c2[nH]cnc2n1
inactive: [1] 92 % of control and 100 % of control | [2] 100 % of control | [6] 88 % of control | [3] 100 % of control and 103 % of control
